Test [1] has as its system mice. The experiment in a line: Locomotor activity test (LMA). In kind it is in vivo. Conditions: ip, LMA measured 30 minutes after dosing, counts for 10 minutes, percent change from control. The source says:
Psychostimulant activity was examined through the locomotor activity test (LMA). The LMA is a behavioral test developed to predict the efficacy of psychostimulants. The LMA is an attractive test for psychostimulants because it is sensitive and specific. All of the major classes of psychostimulants enhance ambulatory activities in the LMA, including methylphenidate, amphetamine, and many other psychostimulants.
Sixteen (16) mice (3 weeks CrjBgi:CD-1 (ICR) and 8 weeks C57BL/6) were purchased from Orient Bio Inc. (Gyeonggi-do, Korea). The mice were divided into a control group and a drug-treated group (eight (8) mice per group) by a block randomization method. Each of the group was placed in an empty cage and bred under environmental conditions of 19-25° C. with a relative humidity of 40-60% and a lighting cycle of 12 hr light/12 hr dark. Diet and water were supplied ad libitum. After one week of acclimation, the LMA test was carried out. The mice were habituated for over 1 hour in an LMA room before starting the LMA test. After habituation, the test compounds (10 or 30 mg/kg) were administered to the drug-treated group by intraperitoneal injection. At 30 minutes after i.p. dosing, LMA was measured using automated photobeams, Opto-Varimax® (Columbus Instruments, Ohio, US) and recorded on a computer. The total locomoter counts for each mouse were recorded for 10 minutes.
Statistical mean values for control and drug-treated groups were calculated and the percent changes from control were determined.

Test [2] addresses T1, dopamine transporter (Rattus norvegicus, UniProt P23977).
T1 construct: The receptor source was rat striatal membranes; from tissue; host or cells: striatum of male SD rats (Orient Korea), membrane preparation
The experiment in a line: Dopamine transporter binding assay ([3H]GBR12935, rat striatal membranes). Conditions: 10 μM test compound, radioligand [3H]GBR12935 1.0 nM, 25° C., 45 minutes. How it is done: Rats (SD-rat, Orient Korea, male, 200-250 g) were sacrificed by decapitation. The striata were removed immediately and then stored at −80° C. until used. On the day of the manipulation, the striata were thawed and suspended in 20 volumes of buffer containing 50 mM Tris-HCl and 120 mM NaCl (pH 7.7). The suspension then was centrifuged at 17,700 rpm for 20 minutes. The pellet was resuspended in 20 volumes of the buffer and centrifuged at 17,700 rpm for 20 minutes. This procedure was repeated once more. The pellet obtained was resuspended in a few ml of the buffer and then homogenized. The concentration of the receptor source was determined by Lowry et al., 1951, J. Biol. Chem. 193:265-275.
Dopamine Transporter Assay Protocol
The dopamine reuptake transporter binding assay was performed according to the methods described in Madras et al., 1989, Mol. Pharmacol. 36(4):518-524, and Javitch et al., 1984, Mol. Pharmacol. 26(1):35-44. The receptor source was rat striatal membranes; the radioligand was GBR12935 [prolyene-2,3-^3H] […]

Molecules are shown by their SMILES.

A word on the inhibition: it is the share of the control response that was lost under treatment. The low end stands for a response near the control, the high end for a response far below the control.

T1 sequence (P23977 whole entry): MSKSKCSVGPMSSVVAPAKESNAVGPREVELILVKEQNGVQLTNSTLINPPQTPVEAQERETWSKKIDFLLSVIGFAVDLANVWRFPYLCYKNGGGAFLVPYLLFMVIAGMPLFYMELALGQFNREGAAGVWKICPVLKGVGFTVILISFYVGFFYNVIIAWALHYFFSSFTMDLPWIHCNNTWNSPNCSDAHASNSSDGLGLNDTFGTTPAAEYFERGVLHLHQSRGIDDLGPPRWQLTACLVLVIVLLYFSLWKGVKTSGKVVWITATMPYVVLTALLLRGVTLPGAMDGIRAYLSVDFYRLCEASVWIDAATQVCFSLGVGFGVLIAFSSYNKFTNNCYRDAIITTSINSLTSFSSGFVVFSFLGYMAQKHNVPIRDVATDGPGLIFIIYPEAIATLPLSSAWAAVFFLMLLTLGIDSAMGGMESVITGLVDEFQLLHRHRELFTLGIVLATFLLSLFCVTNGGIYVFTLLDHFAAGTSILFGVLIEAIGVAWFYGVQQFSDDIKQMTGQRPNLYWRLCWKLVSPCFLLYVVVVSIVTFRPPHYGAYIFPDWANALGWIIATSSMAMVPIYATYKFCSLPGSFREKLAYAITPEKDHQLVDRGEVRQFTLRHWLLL

`Cl.NC(=O)NC(=O)OC[C@H](N)Cc1ccccc1` [Example 2, (2R)-2-Amino-3-phenylpropyl (aminocarbonyl)carbamate]: the “% ambulation” value in test [1] (30 mg/kg) was 118.7% (30 mg/kg, ip). This compound had an inhibition at 10 µM in test [2] of 50.1%.

As to `CC(C)N[C@@H](COC(=O)NC(N)=O)Cc1ccccc1.Cl` [Example 3, (2R)-2-(Isopropylamino)-3-phenylpropyl (aminocarbonyl)carbamate], the “% ambulation” value in test [1] (30 mg/kg) is given as 291.5% (30 mg/kg, ip). In addition, the inhibition at 10 µM in test [2] is 40.1%.

Regarding `CN(C)[C@@H](COC(=O)NC(N)=O)Cc1ccccc1.Cl` [Example 4, (2R)-2-(Dimethylamino)-3-phenylpropyl (aminocarbonyl)carbamate], the “% ambulation” value in test [1] (30 mg/kg) was 242.6% (30 mg/kg, ip). Besides, at 10 µM the inhibition in test [2] was 38.4%.

Turning to `NC(=O)NC(=O)OC[C@H](N)Cc1ccc(Cl)cc1Cl` [Example 6, (2R)-2-Amino-3-(2,4-dichlorophenyl)propyl (aminocarbonyl)carbamate], the inhibition at 10 µM in test [2] is 20.4%.

On to `NC(=O)NC(=O)OC[C@H](N)Cc1ccc(Cl)c(Cl)c1` [Example 7, (2R)-2-Amino-3-(3,4-dichlorophenyl)propyl (aminocarbonyl)carbamate], for which the inhibition at 10 µM in test [2] amounted to 41.2%.

With `CN(C(N)=O)C(=O)OC[C@H](N)Cc1ccccc1` [Example 8], in test [1] (30 mg/kg), the “% ambulation” value is listed as 186.4% (30 mg/kg, ip). The same compound yielded an inhibition at 10 µM in test [2] of 20.3%.

On to `NC(=O)NC(=O)OCC(N)Cc1ccc(Cl)cc1` (stereo not shown) [Example 9], for which 10 µM produced 42.8% inhibition in test [2].

Consider `CN[C@@H](COC(=O)NC(N)=O)Cc1ccccc1` [Example 14], for which testing at 10 µM in test [2] gave an inhibition of 35.9%.

With `CN(C(N)=O)C(=O)OC[C@@H](Cc1ccccc1)N(C)C` [Example 15], the “% ambulation” value in test [1] (10 mg/kg) is listed as 202.2% (10 mg/kg, ip). In addition, at 10 µM the inhibition in test [2] was 55.5%.

In turn, `NC(=O)N(Cc1ccccc1)C(=O)OC[C@H](N)Cc1ccccc1` [Example 16, (2R)-2-Amino-3-phenylpropyl (aminocarbonyl)benzylcarbamate] displayed an inhibition at 10 µM in test [2] of 20.8%.

Compound `CCN(C(N)=O)C(=O)OC[C@H](N)Cc1ccccc1` [Example 17, (2R)-2-Amino-3-phenylpropyl(aminocarbonyl)ethylcarbamate] showed an inhibition at 10 µM in test [2] of 41.2%.

For the compound `CN(C(N)=O)C(=O)OC[C@H](N)Cc1ccccc1Cl` [Example 18], in test [2], the inhibition at 10 µM came out at 17.5%.

On to `CN(C(N)=O)C(=O)OC[C@H](N)Cc1ccc(F)cc1` [Example 19, 2-Amino-3-(4-fluorophenyl)propyl(aminocarbonyl)methylcarbamate], for which 10 µM produced 34.3% inhibition in test [2].

In test [2], `CN(C(N)=O)C(=O)OC[C@H](N)Cc1ccc(Cl)cc1Cl` [Example 21, (2R)-2-amino-3-(2,4-dichlorophenyl)propyl (aminocarbonyl) Methylcarbamate] returned an inhibition at 10 µM of 31.5%.

Turning to `CN(C(N)=O)C(=O)OC[C@H](N)Cc1ccc(Cl)c(Cl)c1` [Example 22, (2R)-2-Amino-3-(3,4-dichlorophenyl)propyl (aminocarbonyl) Methylcarbamate], the inhibition at 10 µM in test [2] turned out to be 37%.

Compound `CN(C(N)=O)C(=O)OCC(N)Cc1ccccc1` (stereo not shown) [Example 24] came in with an inhibition at 10 µM in test [2] of 45%.

On to `N[C@@H](COC(=O)NC(=O)Nc1ccccc1)Cc1ccccc1` [Example 29, (2R)-2-Amino-3-phenylpropyl (anilinocarbonyl)carbamate], for which testing at 10 µM in test [2] gave an inhibition of 50.7%.

The values above are taken from patent publication US10888542B2 (SK BIOPHARMACEUTICALS CO., LTD., priority 2014, dated 2021).
